The data set is described as follows: solvent given as SMILES.

The structures appear in SMILES notation.

As to `CC(C)(C)c1cc(-c2c3cc(c(-c4cc(C(C)(C)C)cc(C(C)(C)C)c4)c4ccc([nH]4)c(-c4ccc(Br)cc4)c4nc(c(-c5ccc(Br)cc5)c5ccc2[nH]5)C=C4)N=C3)cc(C(C)(C)C)c1`, for the setting “in ClCCl”, the absorption maximum was 726 nm.

Take `CN(C)c1ccc(/C=C/c2ccc(-c3cc(-c4ccccn4)nc(-c4ccccn4)c3)cc2)cc1`: the absorption maximum is, setting by setting: (in C1CCOC1) 375 nm; (in C1COCCO1) 369 nm; (in CC#N) 379 nm; (in CCO) 379 nm; (in ClCCl) 381 nm.

With `C(#Cc1ccccc1C#Cc1ccccc1)c1ccccc1`, the absorption maximum (in CC#N) amounted to 310 nm.

Take `CCC/N=C/c1cc2ccc(N(C)C)cc2cc1OC`: the absorption maximum came out at 369 nm (in C1CCOC1); 369 nm (in CC#N); 450 nm (in CC(C)O); 369 nm (in CCOC(C)=O); 374 nm (in CN(C)C=O); 376 nm (in CS(C)=O). The compound further showed an absorption maximum (in Cc1ccccc1) of 369 nm, an absorption maximum (in ClCCl) of 368 nm and an absorption maximum (in O) of 438 nm.

In turn, `O=C1c2ccccc2C(=O)C1C1C(=O)c2c3ccccc3cc3cc4ccccc4c1c23` (stereo unspecified) showed an absorption maximum (in ClCCl) of 505.72 nm.

As for `CC(=O)c1c2c(cc3cc(N(C)C)ccc13)CCC2`, the absorption maximum (in C1CCCCC1) came out at 363 nm; the absorption maximum (in C1CCOC1) was 370 nm; the absorption maximum (in C1COCCO1) is on record as 370 nm; the absorption maximum (in CC#N) came to 370 nm; the absorption maximum (in CCO) stood at 374 nm; the absorption maximum (in CS(C)=O) amounted to 374 nm. Further, the absorption maximum by setting is: (in Cc1ccccc1) 368 nm; (in ClC(Cl)Cl) 373 nm; (in ClCCl) 372 nm.

On to `CC(C)(C)c1ccc2c(c1)c1cc(C(C)(C)C)ccc1n2-c1ccc(N(c2ccc(-c3ccc4c(c3)C(C)(C)c3cc(-c5ccc(N(c6ccc(-n7c8ccc(C(C)(C)C)cc8c8cc(C(C)(C)C)ccc87)cc6)c6ccc(-n7c8ccc(C(C)(C)C)cc8c8cc(C(C)(C)C)ccc87)cc6)cc5)ccc3-4)cc2)c2ccc(-n3c4ccc(C(C)(C)C)cc4c4cc(C(C)(C)C)ccc43)cc2)cc1`, for which the absorption maximum (in ClCCl) is 373 nm.

In the case of `Cc1ccc(-n2c3ccccc3c3cc(C(=C(C#N)C#N)c4ccccc4)ccc32)cc1`, the absorption maximum amounted to 442 nm (in C1CCOC1); 445 nm (in CC#N); 442 nm (in CC(C)=O); 442 nm (in CCOC(C)=O); 447 nm (in CO); 453 nm (in CS(C)=O). Further, the absorption maximum runs as follows: (in Cc1ccccc1) 447 nm; (in ClC(Cl)Cl) 458 nm.

Turning to `CCCCN1C(=O)c2cc(Br)c3c4c(Br)cc5c6c(cc(Br)c(c7c(Br)cc(c2c37)C1=O)c64)C(=O)N(CCCC)C5=O`, the absorption maximum (in ClC(Cl)Cl) is 532 nm.

`COC(=O)c1ccc(-c2ccc3c(c2)C(=O)c2cc(-c4ccc(C(=O)OC)cc4)ccc2-3)cc1` yielded an absorption maximum (in C1CCOC1) of 342 nm.

Where the note is “in ClC(Cl)Cl”, `CC[Si](C)(C)c1cc2ccc3cccc4ccc(c1C(=O)NC(C)(C)C)c2c34` yielded an absorption maximum of 381 nm.

Compound `c1cc2c(N3CCCCC3)c3ccc(=[N+]4CCCCC4)cc-3oc2cc1N1CCCCC1` came in with an absorption maximum (in ClCCl) of 491 nm.

Compound `CC(C)(C)c1ccc2c(c1)c1cc(C(C)(C)C)ccc1n2-c1cccs1` yielded an absorption maximum (in ClCCl) of 340 nm.

For `CCC1=C(C)C2=Cc3c4ccccc4c4n3[B-](c3ccccc3)(Oc3ccccc3-4)[N+]2=C1C` (stereo unspecified), the absorption maximum (in CC#N) is 621 nm, the absorption maximum (in CCCCCC) is 625 nm, the absorption maximum (in Cc1ccccc1) was 629 nm and the absorption maximum (in ClCCl) amounted to 627 nm.

`CCC1=C(C)C2=C(c3cc(C4=C5C(C)=C(CC)C(C)=[N+]5[B-](F)(F)n5c(C)c(CC)c(C)c54)cc(C4=C5C(C)=C(CC)C(C)=[N+]5[B-](F)(F)n5c(C)c(CC)c(C)c54)c3)c3c(C)c(CC)c(C)n3[B-](F)(F)[N+]2=C1C`: the absorption maximum reads like this: (in C1CCOC1) 534 nm; (in CC#N) 531 nm; (in CN(C)C=O) 539 nm; (in Cc1ccccc1) 537 nm; (in ClC(Cl)Cl) 538 nm.

`CCCCCCN(CCCCCC)c1ccc(C#Cc2ccc(/C=C/c3ccc(-c4ccc(/C=C/c5ccc(C#Cc6ccc(N(CCCCCC)CCCCCC)cc6)cc5)cc4)cc3)cc2)cc1` displayed an absorption maximum (in Cc1ccccc1) of 400 nm.

With `O=Cc1cc(C=O)c2ccc3c(N4CCCCC4)cc(N4CCCCC4)c4ccc1c2c43`, the absorption maximum by setting is: (in C1COCCO1) 512 nm; (in CC#N) 525 nm; (in CC(C)=O) 521 nm; (in CCCCCC) 498 nm; (in CCO) 522 nm; (in CCOC(C)=O) 514 nm. Moreover, the absorption maximum reads like this: (in CO) 523 nm; (in CS(C)=O) 535 nm; (in Cc1ccccc1) 516 nm; (in ClCCl) 534 nm.

On to `CCCCCCCCC1(CCCCCCCC)c2ccccc2-c2ccc(N(c3ccc(-n4c5ccccc5c5ccccc54)cc3)c3ccc4c(c3)C(CCCCCCCC)(CCCCCCCC)c3ccccc3-4)cc21`, for which the absorption maximum by setting is: (in C1CCOC1) 347 nm; (in CC#N) 345 nm; (in CC(C)=O) 345 nm; (in CCCCCC) 347 nm; (in CCCCOCCCC) 347 nm; (in CCN(CC)CC) 347 nm. Also, the absorption maximum by setting is: (in CCOC(C)=O) 345 nm; (in CCOCC) 345 nm; (in CN(C)C=O) 345 nm; (in Cc1ccccc1) 348 nm; (in ClCCl) 348 nm.

With `c1ccc(-c2c3ccccc3c(-c3ncccn3)c3ccccc23)cc1`, the absorption maximum runs as follows: (in CCO) 390 nm; (in ClCCl) 393 nm.

In the case of `CN(C)c1ccc(-c2ccc(-c3cc(-c4ccccc4)c(-c4ccccc4)c(-c4ccccc4)c3-c3ccccc3)cc2)cc1`, where the note is “in ClC(Cl)Cl”, the absorption maximum is given as 323 nm.

For the compound `CC(C)[Si]1(C(C)C)c2cc(C=C(C#N)C#N)ccc2-c2ccc(N(c3ccccc3)c3ccccc3)cc21`, the absorption maximum is, setting by setting: (in C1CCCCC1) 484 nm; (in CC#N) 461 nm; (in CCO) 467 nm; (in CCOCC) 467 nm; (in CS(C)=O) 466 nm; (in ClCCl) 481 nm. Where the note is “in c1ccccc1”, this compound gave an absorption maximum of 477 nm.

For the setting “in CO”, `Cc1cc(C)c(B(c2cc(-c3ccccc3)sc2-c2sc(-c3ccccc3)cc2P(=O)(c2ccccc2)c2ccccc2)c2c(C)cc(C)cc2C)c(C)c1` gave an absorption maximum of 392 nm.

`c1ccc(-n2c3ccccc3c3cc(-c4cccc(-n5c6ccccc6c6ncccc65)c4)ccc32)cc1` came in with an absorption maximum (in ClCCl) of 345 nm.

Under “in CS(C)=O”, `Cn1c2ccc(S(=O)(=O)Cl)cc2c(=O)c2cc(S(=O)(=O)Cl)ccc21` came in with an absorption maximum of 406 nm.

For the compound `CCN1c2ccccc2Sc2cc(/C=C(\C#N)c3ccccc3)ccc21`, the absorption maximum was determined as 411 nm (in C1CCOC1); 409 nm (in CC#N); 410 nm (in CC(C)=O); 414 nm (in CN(C)C=O); 418 nm (in CS(C)=O); 412 nm (in Cc1ccccc1). The compound also registered an absorption maximum (in ClCCl) of 413 nm.

Source of the values: the Deep4Chem optical property database.
